From US20110124650A1, “STABLE CRYSTALLINE SALTS OF ANTIFOLATE COMPOUNDS” (Chelsea Therapeutics, Inc., priority 2009, published 2011) come the findings set out here.

A short description of data set [1]: Polymorph stress test: water content by Karl Fisher titration after storage. In kind it is physicochemical. The conditions noted are these: for Water content (Karl Fisher): dipotassium salt. As for the experimental part: Samples of polymorph Form Ib and polymorph Form II also were analyzed for water content using Karl Fisher titration according to method AM-1-General/water content. A columetric Karl Fisher titrator (DL39, Mettler Toledo) was used with a Stromboli drying oven (Mettler Toledo), a generator electrode, and a standard analytical balance (at least […] accuracy). Instrument conditions were set for an oven temperature of 150° C., a gas flow rate of 100.0 mL/min, and a stirrer speed of 50%. Control parameters were set for a max time of 600 s, a current of 2.0 μA, an end point of 100 mV, and a generation speed set at normal. The samples were tested on the day of synthesis (zero point) and at 1, 2, and 4 weeks storage at ambient conditions (i.e., room temperature and room humidity), at 25° C. (+/−2° C.) and 60% relative humidity (RH) (+/−5% RH), and at 40° C. (+/−2° C.) and 75% RH (+/−5% RH). Test results are provided in Table 10 (Form Ib) and Table 11 (Form II), wherein the values provided are the percent water content.

Data set [2] is described as follows: Polymorph stress test: purity by HPLC-UV after storage. In kind it is physicochemical. The conditions noted are these: for Purity by HPLC-UV, average: average over time points. As for the experimental part: Samples of polymorph Form Ib and polymorph Form II were analyzed for purity by HPLC-UV according to method AM-5-ASP001 performed by gradient liquid chromatography with UV-detection at 237 nm. A Hypersil GOLD column from Thermo Scientific (250×4.6 mm, 5 μm) was used at a temperature of 30° C. A Dionex STH 585 column oven was used with a Dionex P580 gradient pump and a flow rate of 1.0 ml/min (gradient elution). A Dionex Degasys DG-1210 degasser and a Gynkotek Gina 50 autosampler injector were used with an injection volume of 5 μL. A Dionex PDA-100 photodiode array detector was used at a wavelength of 237 nm. Sample runtime was 46 minutes. The samples were tested on the day of synthesis (zero point) and at 1, 2, and 4 weeks storage at ambient conditions (i.e., room temperature and room humidity), at 25° C. (+/−2° C.) and 60% relative humidity (RH) (+/−5% RH), and at 40° C. (+/−2° C.) and 75 RH (+/−5% RH). Test results are provided in Table 8 (Form Ib) and Table 9 (Form II), wherein the values provided are the area %.

The mark [3] stands for this setting: 25° C. (+/−2° C.) and 60% relative humidity (+/−5% RH).
[4] abbreviates: 1 week storage, ambient conditions.
Where [5] appears, read: 2 weeks storage, ambient conditions.
The mark [6] stands for this setting: 4 weeks storage, ambient conditions.
Where [7] appears, read: 1 week storage, 25° C./60% RH, dipotassium salt.
Setting [8] is: 1 week storage, 40° C./75% RH, dipotassium salt.
Where [9] appears, read: 1 week storage, ambient conditions, dipotassium salt.
[10] abbreviates: 2 weeks storage, 25° C./60% RH, dipotassium salt.
Where [11] appears, read: 2 weeks storage, 40° C./75% RH, dipotassium salt.
Where [12] appears, read: 2 weeks storage, ambient conditions, dipotassium salt.
The mark [13] stands for this setting: 4 weeks storage, 25° C./60% RH, dipotassium salt.
Setting [14] is: 4 weeks storage, 40° C./75% RH, dipotassium salt.
Setting [15] is: 25° C./60% RH, dipotassium salt.
Where [16] appears, read: 40° C./75% RH, dipotassium salt.
Setting [17] is: ambient conditions, dipotassium salt.
Where [18] appears, read: zero point (day of synthesis), dipotassium salt.

`C=C(C[C@H](NC(=O)c1ccc(CCc2ccc3nc(N)nc(N)c3c2)cc1)C(=O)[O-])C(=O)[O-].[K+].[K+]` [Form I, (S)-2-{4-[2-(2,4-diamino-quinazolin-6-yl)-ethyl]-benzoylamino}-4-methylene-pentanedioic acid, dipotassium salt]: the “Water uptake on storage (in words)” value in data set [1] (setting [3]) is reported as “no significant water uptake”.
Regarding `C=C(C[C@H](NC(=O)c1ccc(CCc2ccc3nc(N)nc(N)c3c2)cc1)C(=O)[O-])C(=O)[O-].[K+].[K+]` [Form II, (S)-2-{4-[2-(2,4-diamino-quinazolin-6-yl)-ethyl]-benzoylamino}-4-methylene-pentanedioic acid, dipotassium salt], the “Water content (Karl Fisher)” value was 17.0% in data set [1] (1 week storage, 25° C./60% RH); 21.2% in data set [1] (1 week storage, 40° C./75% RH); 18.7% in data set [1] (setting [4]); 16.3% in data set [1] (2 weeks storage, 25° C./60% RH); 24.4% in data set [1] (2 weeks storage, 40° C./75% RH); 21.1% in data set [1] (setting [5]). The “Water content (Karl Fisher)” value in data set [1] (4 weeks storage, 25° C./60% RH) is 16.5%; in data set [1] (4 weeks storage, 40° C./75% RH) it was 26.6%; in data set [1] (setting [6]), 21.9%; in data set [1] (zero point (day of synthesis)), 15.6%. Moreover, in data set [1] (setting [3]), the “Storage stability (in words)” value was “stable”. In addition, the “Water uptake on storage (in words)” value in data set [1] (setting [3]) is on record as “no significant water uptake”. For the same compound, the “Purity by HPLC-UV” value in data set [2] (setting [7]) came to 96.53 area %; in data set [2] (setting [8]), 96.43 area %; in data set [2] (setting [9]) it was 96.42 area %; in data set [2] (setting [10]) it was 96.24 area %; in data set [2] (setting [11]), 96.35 area %; in data set [2] (setting [12]) it was 96.49 area %. Further, the “Purity by HPLC-UV” value in data set [2] (setting [13]) amounted to 96.24 area %; in data set [2] (setting [14]) it was 95.52 area %; in data set [2] (setting [18]), 96.46 area %. The “Purity by HPLC-UV, average” value in data set [2] (setting [15]) came to 96.44 area %; in data set [2] (setting [16]), 96.10 area %; in data set [2] (setting [17]) it was 96.49 area %.
On to `C=C(C[C@H](NC(=O)c1ccc(CCc2ccc3nc(N)nc(N)c3c2)cc1)C(=O)[O-])C(=O)[O-].[K+].[K+]` [Form Ib, (S)-2-{4-[2-(2,4-diamino-quinazolin-6-yl)-ethyl]-benzoylamino}-4-methylene-pentanedioic acid, dipotassium salt], for which the “Water content (Karl Fisher)” value in data set [1] (1 week storage, 25° C./60% RH) was 16.0%; in data set [1] (1 week storage, 40° C./75% RH) it was 19.6%; in data set [1] (setting [4]), 16.2%; in data set [1] (2 weeks storage, 25° C./60% RH) it was 15.5%; in data set [1] (2 weeks storage, 40° C./75% RH) it was 22.7%; in data set [1] (setting [5]) it was 16.5%. In addition, the “Water content (Karl Fisher)” value in data set [1] (4 weeks storage, 25° C./60% RH) is reported as 16.4%; in data set [1] (4 weeks storage, 40° C./75% RH) it was 26.8%; in data set [1] (setting [6]) it was 18.4%; in data set [1] (zero point (day of synthesis)), 14.8%. Further, the “Purity by HPLC-UV” value in data set [2] (setting [7]) stood at 95.96 area %; in data set [2] (setting [8]) it was 95.87 area %; in data set [2] (setting [9]), 95.87 area %; in data set [2] (setting [10]), 95.67 area %; in data set [2] (setting [11]), 95.43 area %; in data set [2] (setting [12]), 95.78 area %. Also, the “Purity by HPLC-UV” value in data set [2] (setting [13]) is 95.85 area %; in data set [2] (setting [14]), 95.34 area %; in data set [2] (setting [6]), 95.91 area %; in data set [2] (setting [18]), 95.94 area %. Moreover, the results for the “Purity by HPLC-UV, average” value in data set [2] (setting [15]), in data set [2] (setting [16]) and in data set [2] (setting [17]) were 95.83 area %, 95.55 area % and 95.88 area %, respectively.
